Here are results for two compounds from US8338336B2, “Synergistic herbicidal composition containing penoxsulam and oxyfluorfen” (Dow AgroSciences, LLC, priority 2010, dated 2012).

What all share (assay type): in vivo
The subject of test [1] is SOLNI = black nightshade (Solanum nigrum). Kind of test: Field trial, autumn post-emergence application, post-emergence burndown activity (Table 4). The following applies: Seville; for % Control SOLNI(2) Ob (observed visual weed control): Spain - 7 Days After Application; for % Control SOLNI(1) Ob (observed visual weed control): Spain - 20 Days After Application. How it is done: (§1) Evaluation of Pre-Emergence and Post-Emergence Herbicidal Activity of Mixtures in the Field
(§2) Field trials were conducted in perennial tree and vine crops using standard herbicide small plot research methodology. Plots varied from 3×3 meter (m) to 3×10 m (width×length) with 3 to 4 replicates per treatment. The perennial tree and vine crops were grown using normal cultural practices for the respective areas for the trials, using normal planting, fertilization, watering, flooding and maintenance for pests to ensure good growth of the crop and the weeds.
(§3) All treatments in the field trials were applied using a carbon dioxide (CO2) backpack sprayer calibrated to apply 187 liters per hectare (L/ha) spray volume. Commercially available products of penoxsulam and oxyfluorfen were mixed in water at appropriate formulated product rates to achieve the desired rates shown based on a unit area of application (hectare). Treatments were rated at different intervals from treatment to evaluation, from 7 to 175 days after application as compared to the untreated control plants. Due to the long term residual weed control needed to determine the synergistic effect, all single entity products and their tank mixes were mixed with glyphosate to ensure complete weed burndown to be able to measure residual weed control and not just burndown of weeds. Visual weed control was scored on a scale of 0 to 100 percent where 0 corresponds to no injury and 100 corresponds to complete kill.
(§4) Colby's equation was used to determine the herbicidal effects expected from the mixtures (Colby, S. R. Calculation of the synergistic and antagonistic response of herbicide combinations. Weeds 1967, 15, 20-22).
(§5) The following equation was used to calculate the expected activity of mixtures containing two active ingredients, A and B: Expected=A+B−(A×B/100)
(§6) A=observed efficacy of active ingredient A at the same concentration as used in the mixture.
(§7) B=observed efficacy of active ingredient B at the same concentration as used in the mixture.

Test [2] relates to MALNE = mallow/malva (Malva neglecta). Kind of test: Field trial, winter pre-emergence application, residual weed control (Table 1). The following applies: rated 50 to 132 Days After Application. How it is done:
as §1, §2, §3, §4, §5, §6, §7

Test [3] deals with ERIBO = fleabane (Conyza bonariensis). The test is described as above. The following applies: rated 50 to 132 Days After Application. The procedure:
as §1, §2, §3, §4, §5, §6, §7

For test [4], the system named is ERICA = marestail (Conyza canadensis). Described as above. The following applies: rated 50 to 132 Days After Application. How it is done: as §1, §2, §3, §4, §5, §6, §7
In test [5] the test system is HEOEU = common heliotrope (Heliotropium europaeum). Kind of test: Field trial, autumn post-emergence application, residual weed control (Table 3). The following applies: rated 56 Days After Application. The procedure: as §1, §2, §3, §4, §5, §6, §7
Test [6] relates to POROL = purslane (Portulaca oleracea). The test is described as above. The following applies: rated 56 Days After Application. How it is done: as §1, §2, §3, §4, §5, §6, §7
For test [7], the system named is CHEAL = common lambsquarter (Chenopodium album). The description is as above. The following applies: rated 56 Days After Application. How it is done: as §1, §2, §3, §4, §5, §6, §7
Test [8] has as its system SHRAR = field madder (Sherardia arvensis). Kind of test: Field trial, autumn pre-emergence application, residual weed control (Table 2). The following applies: rated 97 to 175 Days After Application. How it is done: as §1, §2, §3, §4, §5, §6, §7
Test [9] has as its system ERICA = marestail (Conyza canadensis). The description is as above. The following applies: Spain, rated 97 to 175 Days After Application; for % Control ERICA (2) Ob (observed visual weed control): Moron de la frontera; for % Control ERICA (1) Ob (observed visual weed control): Utrera. The procedure: as §1, §2, §3, §4, §5, §6, §7

`CCOc1cc(Oc2ccc(C(F)(F)F)cc2Cl)ccc1[N+](=O)[O-]` [Oxyfluorfen]: in test [1] (oxyfluorfen 150 g/ha alone), the “% Control SOLNI(2) Ob (observed visual weed control)” value is given as 45% and the “% Control SOLNI(1) Ob (observed visual weed control)” value was 35%. Moreover, in test [2] (oxyfluorfen 1680 g/ha alone), the “% Control MALNE Ob (observed visual weed control)” value (shortened to “% Control MALNE Ob”) amounted to 30%. For the same compound, the “% Control ERIBO Ob (observed visual weed control)” value in test [3] (oxyfluorfen 1120 g/ha alone) was 0%. The “% Control ERICA Ob (observed visual weed control)” value in test [4] (oxyfluorfen 1680 g/ha alone) was 5%. Besides, the “% Control HEOEU Ob (observed visual weed control)” value in test [5] (oxyfluorfen 150 g/ha alone) turned out to be 0%. Further, the “% Control POROL Ob (observed visual weed control)” value in test [6] (oxyfluorfen 150 g/ha alone) came out at 0%. The “% Control CHEAL Ob (observed visual weed control)” value in [7] (oxyfluorfen 150 g/ha alone) is given as 0%. The “% Control SHRAR Ob (observed visual weed control)” value in test [8] (oxyfluorfen 150 g/ha alone) amounted to 63%. For the same compound, in test [9] (oxyfluorfen 150 g/ha alone), the “% Control ERICA (2) Ob (observed visual weed control)” value is 79% and the “% Control ERICA (1) Ob (observed visual weed control)” value was determined as 38%.
Consider `COc1cnc(OC)n2nc(NS(=O)(=O)c3c(OCC(F)F)cccc3C(F)(F)F)nc12` [Penoxsulam, 2-(2,2-difluoroethoxy)-N-(5,8-dimethoxy-[1,2,4]triazolo[1,5-c]pyrimidin-2-yl)-6-(trifluoromethyl)benzenesulfonamide], for which, in test [1] (penoxsulam 20 g/ha alone), the “% Control SOLNI(2) Ob (observed visual weed control)” value was determined as 10% and the “% Control SOLNI(1) Ob (observed visual weed control)” value is 10%. Further, the “% Control MALNE Ob” value in test [2] (penoxsulam 17.5 g/ha alone) is 37%. Also, the “% Control MALNE Ob” value in [2] (penoxsulam 35 g/ha alone) worked out at 50%. Moreover, the “% Control ERIBO Ob (observed visual weed control)” value in [3] (penoxsulam 8.8 g/ha alone) came to 65%. The “% Control ERICA Ob (observed visual weed control)” value in test [4] (penoxsulam 8.8 g/ha alone) stood at 75%. Besides, the “% Control HEOEU Ob (observed visual weed control)” value in test [5] (penoxsulam 20 g/ha alone) was 0%. Also, the “% Control POROL Ob (observed visual weed control)” value in test [6] (penoxsulam 20 g/ha alone) is 0%. Moreover, the “% Control CHEAL Ob (observed visual weed control)” value in test [7] (penoxsulam 20 g/ha alone) was 0%. Further, the “% Control SHRAR Ob (observed visual weed control)” value in [8] (penoxsulam 20 g/ha alone) is given as 0%. In test [9] (penoxsulam 20 g/ha alone), the “% Control ERICA (2) Ob (observed visual weed control)” value came to 6% and the “% Control ERICA (1) Ob (observed visual weed control)” value turned out to be 23%.
